Test results from patent publication US8962631B2 (Vertex Pharmaceuticals Incorporated, priority 2010, dated 2015).

Target: T1, full-length ATR (Homo sapiens, UniProt Q13535)
T1 construct: Assays were carried out at 25° C. in the presence of 5 nM full-length ATR
Experiment: ATR Inhibition Assay (radioactive-phosphate incorporation)
Format: biochemical
Settings: for Ki: Ki(app), 10 μM ATP, 800 μM target peptide, 5 nM full-length ATR, 25° C.; for inhibition at 15 µM: at 15 uM compound, read-out: percent inhibition against ATR
Description: Compounds were screened for their ability to inhibit ATR kinase using a radioactive-phosphate incorporation assay. Assays were carried out in a mixture of 50 mM Tris/HCl (pH 7.5), 10 mM MgCl2 and 1 mM DTT. Final substrate concentrations were 10 μM [γ-33P]ATP (3 mCi 33P ATP/mmol ATP, Perkin Elmer) and 800 μM target peptide ([…] (SEQ. ID NO: 1)).
Assays were carried out at 25° C. in the presence of 5 nM full-length ATR. An assay stock buffer solution was prepared containing all of the reagents listed above, with the exception of ATP and the test compound of interest. 13.5 μL of the stock solution was placed in a 96 well plate followed by addition of 2 μL of DMSO stock containing serial dilutions of the test compound (typically starting from a final concentration of 15 μM with 3-fold serial dilutions) in duplicate (final DMSO concentration 7%). The plate was pre-incubated for 10 minutes at 25° C. and the reaction initiated by addition of 15 μL [γ-33P]ATP (final concentration 10 μM).
The reaction was stopped after 24 hours by the addition of 30 μL 0.1M phosphoric acid containing 2 mM ATP. A multiscreen phosphocellulose filter 96-well plate (Millipore, Cat no. MAPHN0B50) was pretreated with 100 μL 0.2M phosphoric acid prior to the addition of 45 μL of the stopped assay mixture. The plate was washed with […] 0.2M phosphoric acid. After drying, 100 μL Optiphase ‘SuperMix’ liquid scintillation cocktail (Perkin Elmer) was added to the well prior to scintillation counting (1450 Microbeta Liquid Scintillation Counter, Wallac).
After removing mean background values for all of the data points, Ki(app) data were calculated from non-linear regression analysis of the initial rate data using the Prism software package (GraphPad Prism version 3.0cx for Macintosh, GraphPad Software, San Diego Calif., USA).

T1 sequence (Q13535 whole entry): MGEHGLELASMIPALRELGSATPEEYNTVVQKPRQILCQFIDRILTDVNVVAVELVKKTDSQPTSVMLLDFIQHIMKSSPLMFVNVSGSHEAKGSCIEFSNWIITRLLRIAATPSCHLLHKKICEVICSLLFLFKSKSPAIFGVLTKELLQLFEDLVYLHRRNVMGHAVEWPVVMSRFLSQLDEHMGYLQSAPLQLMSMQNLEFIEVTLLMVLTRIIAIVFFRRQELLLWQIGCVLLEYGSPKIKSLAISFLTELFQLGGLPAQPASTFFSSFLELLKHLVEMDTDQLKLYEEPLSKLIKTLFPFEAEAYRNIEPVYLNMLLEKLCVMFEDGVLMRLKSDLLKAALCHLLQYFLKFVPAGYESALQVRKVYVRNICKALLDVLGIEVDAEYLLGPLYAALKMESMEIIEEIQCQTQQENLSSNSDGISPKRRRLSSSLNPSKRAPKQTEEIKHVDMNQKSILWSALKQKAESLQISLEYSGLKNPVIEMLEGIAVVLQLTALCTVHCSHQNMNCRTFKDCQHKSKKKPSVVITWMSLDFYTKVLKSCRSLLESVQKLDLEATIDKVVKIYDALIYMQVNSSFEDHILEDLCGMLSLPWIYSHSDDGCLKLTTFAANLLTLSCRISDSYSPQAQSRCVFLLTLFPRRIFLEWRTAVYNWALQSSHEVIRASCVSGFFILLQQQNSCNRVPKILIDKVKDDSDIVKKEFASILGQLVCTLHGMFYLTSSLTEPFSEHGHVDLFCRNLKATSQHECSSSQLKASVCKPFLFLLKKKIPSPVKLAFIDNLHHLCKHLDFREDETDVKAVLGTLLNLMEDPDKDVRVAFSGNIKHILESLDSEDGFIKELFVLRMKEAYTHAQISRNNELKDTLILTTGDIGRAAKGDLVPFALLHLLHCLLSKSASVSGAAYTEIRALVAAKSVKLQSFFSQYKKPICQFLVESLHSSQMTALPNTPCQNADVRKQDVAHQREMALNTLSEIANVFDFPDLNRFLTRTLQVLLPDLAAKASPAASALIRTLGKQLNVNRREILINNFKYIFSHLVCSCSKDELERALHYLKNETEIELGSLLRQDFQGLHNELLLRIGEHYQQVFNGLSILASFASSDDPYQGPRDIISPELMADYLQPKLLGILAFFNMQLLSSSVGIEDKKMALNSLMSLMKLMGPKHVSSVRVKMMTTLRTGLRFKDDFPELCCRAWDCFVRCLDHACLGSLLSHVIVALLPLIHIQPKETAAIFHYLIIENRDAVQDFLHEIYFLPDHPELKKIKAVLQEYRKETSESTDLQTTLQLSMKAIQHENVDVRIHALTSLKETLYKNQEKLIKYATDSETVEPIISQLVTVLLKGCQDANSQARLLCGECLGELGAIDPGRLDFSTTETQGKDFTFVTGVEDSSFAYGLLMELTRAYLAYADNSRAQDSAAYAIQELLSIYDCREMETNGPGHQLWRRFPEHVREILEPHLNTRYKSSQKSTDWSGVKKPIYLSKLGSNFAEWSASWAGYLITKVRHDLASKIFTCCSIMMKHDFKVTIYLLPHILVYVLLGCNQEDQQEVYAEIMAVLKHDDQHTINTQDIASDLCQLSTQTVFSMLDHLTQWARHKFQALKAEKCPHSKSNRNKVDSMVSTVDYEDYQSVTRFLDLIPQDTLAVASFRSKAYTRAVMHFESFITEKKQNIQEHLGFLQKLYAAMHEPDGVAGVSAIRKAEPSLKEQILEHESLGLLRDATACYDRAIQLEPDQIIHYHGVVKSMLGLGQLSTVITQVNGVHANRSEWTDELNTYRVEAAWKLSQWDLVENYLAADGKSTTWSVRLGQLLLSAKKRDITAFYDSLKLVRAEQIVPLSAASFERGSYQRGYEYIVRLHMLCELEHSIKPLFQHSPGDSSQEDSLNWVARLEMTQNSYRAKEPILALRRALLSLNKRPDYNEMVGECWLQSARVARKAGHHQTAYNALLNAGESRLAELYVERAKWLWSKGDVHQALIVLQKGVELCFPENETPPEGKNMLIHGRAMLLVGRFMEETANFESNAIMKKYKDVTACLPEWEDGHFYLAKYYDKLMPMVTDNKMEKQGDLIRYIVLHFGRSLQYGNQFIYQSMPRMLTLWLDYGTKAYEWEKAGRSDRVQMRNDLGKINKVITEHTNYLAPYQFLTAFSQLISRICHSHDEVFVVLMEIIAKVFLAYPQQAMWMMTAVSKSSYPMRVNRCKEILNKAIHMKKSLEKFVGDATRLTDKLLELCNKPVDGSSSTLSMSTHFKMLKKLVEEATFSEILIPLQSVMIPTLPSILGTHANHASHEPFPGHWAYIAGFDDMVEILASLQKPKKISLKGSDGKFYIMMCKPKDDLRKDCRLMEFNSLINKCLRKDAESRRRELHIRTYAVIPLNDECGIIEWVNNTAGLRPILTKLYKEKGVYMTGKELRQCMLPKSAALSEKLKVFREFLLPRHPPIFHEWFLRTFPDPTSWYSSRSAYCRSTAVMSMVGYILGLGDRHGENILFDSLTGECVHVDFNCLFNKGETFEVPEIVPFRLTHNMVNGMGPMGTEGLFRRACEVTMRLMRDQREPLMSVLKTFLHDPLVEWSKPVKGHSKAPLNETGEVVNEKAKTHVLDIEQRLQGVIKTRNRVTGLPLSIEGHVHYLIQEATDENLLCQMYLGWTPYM

Ki [nM]	Compound	other results
≤ 500	COC(=O)c1cnc(N)c(-c2nc3ccc(C)cc3[nH]2)n1 [II-47, Methyl 5-amino-6-(6-methyl-1H-benzo[d]imidazol-2-yl)pyrazine-2-carboxylate]	
500 to 1000	Cc1ccc2nc(-c3nc(C#CCNS(C)(=O)=O)cnc3N)[nH]c2c1 [II-87, N-[3-[5-Amino-6-(6-methyl-1H-benzimidazol-2-yl)pyrazin-2-yl]prop-2-ynyl]methanesulfonamide]	
1000 to 8000	COC/C=C/c1cnc(N)c(-c2nc3ccc(C)cc3[nH]2)n1 [II-80, 5-[(E)-3-Methoxyprop-1-enyl]-3-(6-methyl-1H-benzimidazol-2-yl)pyrazin-2-amine]	
500 to 1000	Cc1ccc2nc(-c3nc(C#CCO)cnc3N)[nH]c2c1 [II-82, 3-[5-Amino-6-(6-methyl-1H-benzimidazol-2-yl)pyrazin-2-yl]prop-2-yn-1-ol]	
≤ 500	N#CCNC(=O)c1cnc(N)c(-c2nc3ccccc3[nH]2)n1 [II-75, 5-Amino-6-(1H-benzimidazol-2-yl)-N-(cyanomethyl)pyrazine-2-carboxamide]	
500 to 1000	Cc1ccc2nc(-c3nc(C(=O)N[C@@H](C)c4ccccc4)cnc3N)[nH]c2c1 [II-59, 5-Amino-6-(6-methyl-1H-benzimidazol-2-yl)-N-[(1S)-1-phenylethyl]pyrazine-2-carboxamide]	
500 to 1000	Cc1ccc2nc(-c3nc(C(=O)NCc4cccnc4)cnc3N)[nH]c2c1 [II-70, 5-Amino-6-(6-methyl-1H-benzimidazol-2-yl)-N-(3-pyridylmethyl)pyrazine-2-carboxamide]	
500 to 1000	COCC#Cc1cnc(N)c(-c2nc3ccc(C)cc3[nH]2)n1 [II-83, 5-(3-Methoxyprop-1-ynyl)-3-(6-methyl-1H-benzimidazol-2-yl)pyrazin-2-amine]	
1000 to 8000	Cc1ccc2nc(-c3nc(C(=O)NC(C)c4ccccc4)cnc3N)[nH]c2c1 (stereo in doubt) [II-57, 5-Amino-6-(6-methyl-1H-benzimidazol-2-yl)-N-[(1R)1-phenylethyl]pyrazine-2-carboxamide]	
≤ 500	Cc1ccc2nc(-c3nc(C(=O)NCC4CC4)cnc3N)[nH]c2c1 [II-56, 5-Amino-N-(cyclopropylmethyl)-6-(6-methyl-1H-benzimidazol-2-yl)pyrazine-2-carboxamide]	
≤ 500	Cc1ccc2nc(-c3nc(C(=O)NCC4CCCC4)cnc3N)[nH]c2c1 [II-49, 5-Amino-N-(cyclopentylmethyl)-6-(6-methyl-1H-benzimidazol-2-yl)pyrazine-2-carboxamide]	
≤ 500	Cc1ccc2nc(-c3nc(C(=O)NCCC#N)cnc3N)[nH]c2c1 [II-77, 5-Amino-N-(2-cyanoethyl)-6-(6-methyl-1H-benzimidazol-2-yl)pyrazine-2-carboxamide]	
500 to 1000	CC(C)(O)C#Cc1cnc(N)c(C(=O)Nc2ccccc2)n1 [II-81, 3-Amino-6-(3-hydroxy-3-methyl-but-1-ynyl)-N-phenyl-pyrazine-2-carboxamide]	
1000 to 8000	Cc1ccc2nc(-c3nc(C(=O)NC4CCC4)cnc3N)[nH]c2c1 [II-74, 5-Amino-N-cyclobutyl-6-(6-methyl-1H-benzimidazol-2-yl)pyrazine-2-carboxamide]	
1000 to 8000	Nc1ncc(C#CCO)nc1-c1nnc(-c2ccccc2)o1 [II-90, 3-[5-amino-6-(5-phenyl-1,3,4-oxadiazol-2-yl)pyrazin-2-yl]prop-2-yn-1-ol]	
1000 to 8000	Cc1ccc2nc(-c3nc(C(=O)NCC(C)O)cnc3N)[nH]c2c1 (centres unmarked) [II-67, 5-Amino-N-(2-hydroxypropyl)-6-(6-methyl-1H-benzimidazol-2-yl)pyrazine-2-carboxamide]	
≤ 500	COc1ccc(CNC(=O)c2cnc(N)c(-c3nc4ccc(C)cc4[nH]3)n2)cc1 [II-65, 5-Amino-N-[(4-methoxyphenyl)methyl]-6-(6-methyl-1H-benzimidazol-2-yl)pyrazine-2-carboxamide]	
500 to 1000	Cc1ccc2nc(-c3nc(NC(=O)CC#N)cnc3N)[nH]c2c1 [II-92, N-(5-Amino-6-(6-methyl-1H-benzo[d]imidazol-2-yl)pyrazin-2-yl)-2-cyanoethanamide]	
≤ 500	C#CCNC(=O)c1cnc(N)c(-c2nc3ccc(C)cc3[nH]2)n1 [II-54, 5-Amino-6-(6-methyl-1H-benzimidazol-2-yl)-N-prop-2-ynyl-pyrazine-2-carboxamide]	
≤ 500	Cc1ccc2nc(-c3nc(C(=O)N4CCC4)cnc3N)[nH]c2c1 [II-60, [5-Amino-6-(6-methyl-1H-benzimidazol-2-yl)pyrazin-2-yl]-(azetidin-1-yl)methanone]	
500 to 1000	Cc1ccc2nc(-c3nc(C(=O)NCCN4CCCC4)cnc3N)[nH]c2c1 [II-51, 5-Amino-6-(6-methyl-1H-benzimidazol-2-yl)-N-(2-pyrrolidin-1-ylethyl)pyrazine-2-carboxamide]	
1000 to 8000	Cc1ccc2nc(-c3nc(C(=O)N4CCOCC4)cnc3N)[nH]c2c1 [II-53, [5-Amino-6-(6-methyl-1H-benzimidazol-2-yl)pyrazin-2-yl]-morpholino-methanone]	
≤ 500	Cc1ccc2nc(-c3nc(C(=O)NCc4ccc(F)cc4)cnc3N)[nH]c2c1 [II-64, 5-Amino-N-[(4-fluorophenyl)methyl]-6-(6-methyl-1H-benzimidazol-2-yl)pyrazine-2-carboxamide]	

More lines, now with the values behind:

Compound	Ki [nM]	other results
Cc1ccc2nc(-c3nc(OCCN4CCCCC4)cnc3N)[nH]c2c1 [II-27, 3-(6-Methyl-1H-benzimidazol-2-yl)-5-[2-(1-piperidyl)ethoxy]pyrazin-2-amine]		inhibition at 15 µM: 25 to 45%
Nc1ncc(Oc2ccccc2)nc1C(=O)Nc1ccccc1 [II-17, 3-Amino-6-phenoxy-N-phenyl-pyrazine-2-carboxamide]	500 to 1000	
Cc1cccc(Oc2cnc(N)c(-c3nc4ccccc4[nH]3)n2)c1 [II-11, 3-(1H-Benzimidazol-2-yl)-5-(3-methylphenoxy)pyrazin-2-amine]		inhibition at 15 µM: 15 to 24%
Cc1ccc2nc(-c3nc(Oc4ccc(F)cc4)cnc3N)[nH]c2c1 [II-23, 5-(4-Fluorophenoxy)-3-(6-methyl-1H-benzimidazol-2-yl)pyrazin-2-amine]	1000 to 8000	
Nc1ncc(Nc2cccnc2)nc1C(=O)Nc1ccccc1 [II-5, 3-Amino-N-phenyl-6-(3-pyridylamino)pyrazine-2-carboxamide]	≤ 500	
Nc1ncc(O[C@@H]2CC[C@@H](O)C2)nc1-c1nc2ccccc2[nH]1 (relative stereo) [II-36, trans-3-((5-Amino-6-(1H-benzo[d]imidazol-2-yl)pyrazin-2-yl)oxy)cyclopentanol]	500 to 1000	
CC(=O)Nc1ccc(Oc2cnc(N)c(-c3nc4ccc(C)cc4[nH]3)n2)cc1 [II-18, N-[4-[5-Amino-6-(6-methyl-1H-benzimidazol-2-yl)pyrazin-2-yl]oxyphenyl]acetamide]	1000 to 8000	
Nc1ncc(OCCO)nc1-c1nc2ccccc2[nH]1 [II-14, 2-[5-Amino-6-(1H-benzimidazol-2-yl)pyrazin-2-yl]oxyethanol]	1000 to 8000	
Cc1ccc2nc(-c3nc(Oc4ccc(O)cc4)cnc3N)[nH]c2c1 [II-24, 4-[5-Amino-6-(6-methyl-1H-benzimidazol-2-yl)pyrazin-2-yl]oxyphenol]	1000 to 8000	
Cc1ccc2nc(-c3nc(C(=O)Nc4cccnc4)cnc3N)[nH]c2c1 [II-42, 5-Amino-6-(6-methyl-1H-benzimidazol-2-yl)-N-(3-pyridyl)pyrazine-2-carboxamide]	500 to 1000	
Nc1ncc(Sc2ccccc2)nc1C(=O)Nc1ccccc1 [II-37, 3-Amino-N-phenyl-6-phenylsulfanyl-pyrazine-2-carboxamide]	1000 to 8000	
Nc1ncc(Oc2cccnc2)nc1-c1nc2ccccc2[nH]1 [II-12, 3-(1H-Benzimidazol-2-yl)-5-(3-pyridyloxy)pyrazin-2-amine]	1000 to 8000	
CC(=O)Nc1cccc(Oc2cnc(N)c(-c3nc4ccccc4[nH]3)n2)c1 [II-9, N-[3-[5-Amino-6-(1H-benzimidazol-2-yl)pyrazin-2-yl]oxyphenyl]acetamide]	1000 to 8000	
COC(=O)c1ccc(Oc2cnc(N)c(-c3nc4ccc(C)cc4[nH]3)n2)cc1 [II-25, Methyl 4-[5-amino-6-(6-methyl-1H-benzimidazol-2-yl)pyrazin-2-yl]oxybenzoate]		inhibition at 15 µM: 10%
CC(=O)NCCOc1cnc(N)c(-c2nc3ccc(C)cc3[nH]2)n1 [II-34, N-[2-[5-Amino-6-(6-methyl-1H-benzimidazol-2-yl)pyrazin-2-yl]oxyethyl]acetamide]	1000 to 8000	
Cc1ccc2nc(-c3nc(/C=C/Cc4ccccc4)cnc3N)[nH]c2c1	1000 to 8000	
Cc1ccc2nc(-c3nc(Oc4cccc(Oc5ccccc5)c4)cnc3N)[nH]c2c1 [II-28, 3-(6-Methyl-1H-benzimidazol-2-yl)-5-(3-phenoxyphenoxy)pyrazin-2-amine]		inhibition at 60 µM (at 60 uM compound, read-out: percent inhibition of ATR): 10%
Cc1ccc2nc(-c3nc(Oc4ccccc4)cnc3N)[nH]c2c1 [II-30, 3-(6-Methyl-1H-benzimidazol-2-yl)-5-phenoxy-pyrazin-2-amine]	1000 to 8000	
